Measured values as given in US8686003B2, “Tissue non-specific alkaline phosphatase inhibitors and uses thereof for treating vascular calcification” (Sanford-Burnham Medical Research Institute, priority 2007, dated 2014).
“Also recorded” adds a separate entry of the source. Like-named read-outs stand apart in the source and are kept apart here.

Tests used:
[1] = tested on: endogenous pyrophosphatase activity in aortic rat rings; assay: PPi hydrolysis by whole aortas ex vivo; conditions: 30 μM; for PPi hydrolysis / % Inhibition: aortic rat rings ex vivo; for % Inhibition: inhibition of PPi hydrolysis
Procedure: Rats were sacrificed and aortas perfused with Hanks salt solution to remove blood. The aortas were then removed and, after the adventitia was dissected away, were cut into rings approximately 2 mm in length. Four rings were placed in 1 ml of DMEM without serum containing the compounds to be tested. After 90 min at 37° C., sodium PPi (final concentration 1 μM) and [^32P]Pi (final concentration 1 μCurie/ml) were added and 6 samples were removed over 4 hours. Pi was separated from PPi by adding 800 μl of 0.028 M ammonium molybdate in 0.75 M H2SO4 to the samples and extracting with 1600 μl of isobutanol and petroleum ether (4:1). ^32P was counted in the organic phase by Cerenkov radiation. Hydrolysis of PPi was linear over 4 hours and the rate was determined by linear regression.
Furthermore, to measure the degree of pyrophosphatase inhibition by the new TNAP inhibitors, an ex vivo organ culture system in whole aortas was used. For this analysis, rat rather than mouse aortas were selected, as they are larger and easier to dissect.

human TNAP = target: T1, human TNAP (Homo sapiens, UniProt P05186); assay: Enzyme kinetic experiments, Ki and mechanism of TNAP inhibition; assay type: biochemical; conditions: for Ki: pNPP substrate
T1 construct: made in house; host or cells: COS-1 cells, transient expression; dialyzed serum-free conditioned medium
T1 sequence (P05186 18-502 limits assumed): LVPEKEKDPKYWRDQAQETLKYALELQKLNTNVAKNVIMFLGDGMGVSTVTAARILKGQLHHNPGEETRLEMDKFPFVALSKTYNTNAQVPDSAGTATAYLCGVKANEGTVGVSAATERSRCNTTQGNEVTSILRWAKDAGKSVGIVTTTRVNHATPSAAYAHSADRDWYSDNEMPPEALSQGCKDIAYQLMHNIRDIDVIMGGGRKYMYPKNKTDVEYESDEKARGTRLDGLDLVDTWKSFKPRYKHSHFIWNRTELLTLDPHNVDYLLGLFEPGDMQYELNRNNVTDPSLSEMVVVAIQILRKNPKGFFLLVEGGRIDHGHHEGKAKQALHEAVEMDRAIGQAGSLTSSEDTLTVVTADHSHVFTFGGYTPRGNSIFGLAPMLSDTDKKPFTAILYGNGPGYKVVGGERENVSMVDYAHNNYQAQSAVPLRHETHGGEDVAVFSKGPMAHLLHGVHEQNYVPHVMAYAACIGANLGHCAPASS
Procedure: Expression plasmids containing a secreted epitope-tagged TNAP, PLAP and IAP were transfected into COS-1 cells for transient expression using a standard electroporation method. Medium was replaced to Opti-MEM 24 hours later, and the serum free media containing secreted proteins were collected 60 hours after electroporation. Conditioned medium was dialyzed against TBS containing 1 mM MgCl2 ad 20 μM ZnCl2 (to remove phosphate) and filtrated with a 2 μm cellulose acetate filter.
[…] TNAP, PLAP and IAP activities were adjusted to an approximate ΔA405 nm, equivalent to 1, measured after 30 min. Residual AP activity in the presence of inhibitors was expressed as percentage of the control activity. To investigate the mechanism of inhibition, double reciprocal plots of enzyme activity (expressed as mA405 nm min^−1) vs. substrate concentration were constructed, in the presence of various concentrations of added inhibitors (0-30 μM). The y-axis intercepts of the 1/v vs. 1/[S] plots, were then plotted vs. [I] to graphically extract Ki values as the x-intercept in this plot. […] Inhibitors were further tested and sorted based on their kinetic properties at pH 7.4 using PPi, the relevant natural substrate of TNAP. […] Amounts of released phosphate were measured using the Biomol Green Reagent (Biomol Research Laboratories, Inc., Plymouth Meeting, Pa.).

Enpp1−/− VSMCs = assay: In vitro calcification (mineralization) of VSMC cultures; assay type: cell-based, mouse; conditions: Enpp1−/− VSMC culture
Procedure: Vascular SMCs were isolated from explants using a collagenase digestion method and the smooth muscle phenotype was confirmed by RT-PCR analysis for smooth muscle α-actin. One mouse aorta provided on average, 5×10^5 cells. These cells were cultured (in triplicate) at a density of 3×10^4 cells/cm^2 using α-MEM supplemented with β-glycerophosphate (10 mM) and 50 μg/ml ascorbic acid for 3 weeks. To quantify calcium deposited in these cultures, either the o-cresolphthalein complexone method^(31) or the standard Alizarin Red method was used.

[2] = pH 7.5, 1 M Tris-HCl buffer, read-out: Ki (μM) @ pH 7.5
[3] = pH 9.8, 1 M DEA-HCl buffer, read-out: Ki (μM) @ pH 9.8

Row | Structure (SMILES) | PPi hydrolysis [1] [nmol/g/min] | % Inhibition [1] [%] | Ki (human TNAP; [2]) [µM] | Ki (human TNAP; [3]) [µM] | potency at pH 7.5 compared with pH 9.8 (human TNAP) | potency relative to levamisole (human TNAP; Ki at physiological pH) | effect of competitive inhibitor Pi on potency (human TNAP; pH 7.4, 0.1 mM pNPP, Na2HPO4 0-10 mM) | effect of PPi on degree of inhibition (human TNAP; pH 7.4, 0.1 mM pNPP, pyrophosphate 0-40 mM) | suppression of endogenous pyrophosphatase activity (ranking) ([1]; rat whole aortas ex vivo) | inhibition of mineralization (Enpp1−/− VSMCs)
1 | c1ccc([C@H]2CN3CCSC3=N2)cc1 [levamisole, (6S)-6-phenyl-2,3,5,6-tetrahydro-imidazo[2,1-b][1,3]thiazole, reference compound] | 0.252 ± 0.047 | 21.2 | – | – | – | – | – | – | – | –
2 | Cn1cnnc1SC(C(=O)c1ccccc1)c1ccccc1 (centres unmarked) | 0.269 ± 0.032 | 15.9 | 6.4 ± 1.6 | 5.6 ± 1.6 | – | – | – | – | – | –
3 | Cn1ccnc1Sc1nc(Nc2ccccc2)nc(Nc2ccccc2)n1 [compound 5804079] | 0.192 ± 0.041 | 39.9 | 2.8 ± 0.4 | 6.5 ± 1.4 | more potent at pH 7.5 than at pH 9.8 | about 10 fold | does not affect the potency; also recorded: not affected by the presence of the competitive inhibitor Pi | does not affect the degree of inhibition; also recorded: not affected by high concentrations of PPi | most effective | most inhibitory
4 | O=C(CSc1nnc[nH]1)NCCOc1ccccc1 | 0.249 ± 0.046 | 22.2 | 33 ± 5.8 | 5.6 ± 0.7 | – | – | – | – | – | –
